Test results from patent publication US20140073631A1 (priority 2012, published 2014).
In brackets after ≈: the same amount, converted by molar mass.

Legend:
Experiment in all cases: microbe, parasite or virus in culture
[1] = test system: ATCC 35837 Ethambutol Resistant; format: cell-based; conditions: Mycobacterium tuberculosis, ATCC35837, read-out: MIC Value, ATCC 35837 Ethambutol Resistant
[2] = test system: ATCC 35830 Ethionamide Resistant; format: cell-based; conditions: Mycobacterium tuberculosis, ATCC35830, read-out: MIC Value, ATCC 35830 Ethionamide Resistant
[3] = test system: ATCC 35827 Kanamycin Resistant; format: cell-based; conditions: Mycobacterium tuberculosis, ATCC35827, read-out: MIC Value, ATCC 35827 Kanamycin Resistant
[4] = test system: ATCC 35822 Isoniazid Resistant; format: cell-based; conditions: Mycobacterium tuberculosis, ATCC35822, read-out: MIC Value, ATCC 35822 Isoniazid Resistant
[5] = test system: ATCC 35821 Para-aminosalicylic Resistant; format: cell-based, Mycobacterium tuberculosis; conditions: for MIC: Mycobacterium tuberculosis, ATCC35821, read-out: MIC Value, ATCC 35821 Para-aminosalicylic Resistant
[6] = test system: ATCC 35820 Streptomycin Resistant; format: cell-based; conditions: Mycobacterium tuberculosis, ATCC35820, read-out: MIC Value, ATCC 35820 Streptomycin Resistant
[7] = test system: isoniazid (INH)-resistant Mtb (SRI 1369); format: cell-based, Mycobacterium tuberculosis; conditions: for MIC: Mycobacterium tuberculosis, read-out: MIC INH-R
[8] = test system: ofloxacin (OFX)-resistant Mtb (SRI 4000); format: cell-based, Mycobacterium tuberculosis; conditions: for MIC: Mycobacterium tuberculosis, read-out: MIC OFX-R
[9] = test system: rifampin (RMP)-resistant Mtb (SRI 1367); format: cell-based, Mycobacterium tuberculosis; conditions: for MIC: Mycobacterium tuberculosis, read-out: MIC RMP-R

Q: For C[C@@H]1COc2c(N3CCN(C(=N)NC(=N)NCCCCCCNC(=N)NC(=N)N4CCN(c5c(F)cc6c(=O)c(C(=O)O)cn7c6c5OC[C@@H]7C)CC4)CC3)c(F)cc3c(=O)c(C(=O)O)cn1c23 [BVS-85A (XVII)], which MIC [1] is on record?
A: 1.25 µg/mL (≈ 1.32 µM)

Q: And the MIC [2]?
A: 0.625 µg/mL (≈ 0.661 µM)

Q: And the MIC [3]?
A: 1.25 to 2.5 µg/mL (≈ 1.32 to 2.65 µM)

Q: And the MIC [4]?
A: 1.25 µg/mL (≈ 1.32 µM)

Q: And the MIC [5]?
A: 2.5 µg/mL (≈ 2.65 µM)

Q: And the MIC [6]?
A: 0.625 µg/mL (≈ 0.661 µM)

Q: With CO[C@H]1/C=C/O[C@@]2(C)Oc3c(C)c(O)c4c(O)c(c(/C=N/N5CCN(C)CC5)c(O)c4c3C2=O)NC(=O)/C(C)=C\C=C\[C@H](C)[C@H](O)[C@@H](C)[C@@H](O)[C@@H](C)[C@H](OC(C)=O)[C@@H]1C [Rifampin, rifampin, reference compound] as the compound, how does the “% inhibition at the MIC concentration” value [7] read?
A: 67%

Q: What about the MIC [7] of the same compound?
A: 0.049 µg/mL (≈ 0.0595 µM)

Q: And the “% inhibition at the MIC concentration” value [8]?
A: 75%

Q: And the MIC [8]?
A: 0.195 µg/mL (≈ 0.237 µM)

Q: With CC[C@@H](CO)NCCN[C@@H](CC)CO [Ethambutol, reference compound] as the compound, how does the MIC [1] read?
A: > 8 µg/mL

Q: CC1COc2c(N3CCN(C(=N)NC#N)CC3)c(F)cc3c(=O)c(C(=O)O)cn1c23 (stereo not drawn) [BVS-60C (XVII)] was tested. Which MIC [1] did it give?
A: 0.625 µg/mL (≈ 1.51 µM)

Q: And the MIC [2]?
A: 0.312 µg/mL (≈ 0.753 µM)

Q: And the MIC [3]?
A: 0.625 µg/mL (≈ 1.51 µM)

Q: And the MIC [4]?
A: 0.625 µg/mL (≈ 1.51 µM)

Q: What about the MIC [5] of the same compound?
A: 0.625 to 1.25 µg/mL (≈ 1.51 to 3.02 µM)

Q: And the MIC [6]?
A: 0.312 µg/mL (≈ 0.753 µM)

Q: With C[C@@H]1COc2c(N3CCN(C(=N)NC(=N)N4CCN(c5c(F)cc6c(=O)c(C(=O)O)cn7c6c5OC[C@@H]7C)CC4)CC3)c(F)cc3c(=O)c(C(=O)O)cn1c23 [BVS-76D (XVII)] as the compound, how does the MIC [1] read?
A: 0.312 to 0.625 µg/mL (≈ 0.41 to 0.82 µM)

Q: And the MIC [2]?
A: 0.156 µg/mL (≈ 0.205 µM)

Q: What about the MIC [3] of the same compound?
A: 0.625 µg/mL (≈ 0.82 µM)

Q: What about the MIC [4] of the same compound?
A: 0.625 µg/mL (≈ 0.82 µM)

Q: And the MIC [5]?
A: 0.625 to 1.25 µg/mL (≈ 0.82 to 1.64 µM)

Q: And the MIC [6]?
A: 0.312 µg/mL (≈ 0.41 µM)

Q: Which “% inhibition at the MIC concentration” value [7] does the source give for N=C(NCCCCCCNC(=N)NC(=N)N1CCN(c2cc3c(cc2F)c(=O)c(C(=O)O)cn3C2CC2)CC1)NC(=N)N1CCN(c2cc3c(cc2F)c(=O)c(C(=O)O)cn3C2CC2)CC1 [BVS-10A] here?
A: 53%

Q: What about the MIC [7] of the same compound?
A: 1.56 µg/mL (≈ 1.71 µM)

Q: And the “% inhibition at the MIC concentration” value [9]?
A: 58%

Q: What about the MIC [9] of the same compound?
A: 6.25 µg/mL (≈ 6.85 µM)

Q: What about the “% inhibition at the MIC concentration” value [8] of the same compound?
A: 74%

Q: What about the MIC [8] of the same compound?
A: 0.781 µg/mL (≈ 0.855 µM)

Q: For Nc1ccc(C(=O)O)c(O)c1 [Para-aminosalicylic, reference compound], which “MIC Value, ATCC 35821 Para-aminosalicylic Resistant” value [5] is on record?
A: >8 µg/mL

Q: [H]/N=C(/N)N[C@H]1[C@H](O)[C@@H](O)[C@H](O[C@@H]2O[C@@H](C)[C@](O)(C=O)[C@H]2O[C@@H]2O[C@@H](CO)[C@H](O)[C@@H](O)[C@@H]2NC)[C@@H](N/C(N)=N\[H])[C@@H]1O [Streptomycin, reference compound] was tested. Which MIC [6] did it give?
A: > 8 µg/mL

Q: How did the “% inhibition at the MIC concentration” value [9] turn out when NNC(=O)c1ccncc1 [Isoniazid, isoniazid, reference compound] was run?
A: 86%

Q: What about the MIC [9] of the same compound?
A: 0.02 µg/mL (≈ 0.146 µM)

Q: And the MIC [4]?
A: > 8 µg/mL

Q: For CCc1cc(C(N)=S)ccn1 [Ethionamide, reference compound], which MIC [2] is on record?
A: > 8 µg/mL

Q: Which MIC [3] does the source give for NC[C@H]1O[C@H](O[C@H]2[C@H](O)[C@@H](O[C@H]3O[C@H](CO)[C@@H](O)[C@H](N)[C@H]3O)[C@H](N)C[C@@H]2N)[C@H](O)[C@@H](O)[C@@H]1O [Kanamycin, reference compound] here?
A: > 8 µg/mL
